Source: patent US10948498B2, “Methods and kits for predicting the risk of having a cardiovascular disease or event” (INOTREM, priority 2013, dated 2021)

Key:
[1] = system: Atherosclerotic mice (24 weeks old ApoE−/− mice under fat diet); assay: Atherosclerosis in mouse: plasma sTREM-1 after peptide treatment; type: in vivo
Protocol: (B) Atherosclerotic mice were randomized to receive LR12 (100 μg in 0.2 mL NaCl 0.9% once a day for 4 weeks) or scrambled-LR12 (100 μg in 0.2 mL NaCl 0.9% once a day for 4 weeks), i.p. injections. Blood samples were obtained at the end of the treatment (4 weeks) to assess sTREM-1 plasma concentrations. Physiologic baseline is calculated from dosage in healthy animals. N=10 per group.
(§1) Mice serum levels of sTREM-1 were determined by ELISA (Mouse TREM-1 Quantikine ELISA Kit, RnDsystems) using a detection limit at 31.3 pg/mL.
12 and 24-weeks old male ApoE−/− mice were put on a fat (lipids 15%, cholesterol 1.25%, no cholate) or chow diet and were treated by daily intraperitoneal injection of peptides (100 μg/day). After 4 weeks of treatment, mice were sacrificed for blood sampling.
Our second objective was to assess whether a treatment could impact plasma levels of sTREM-1. Atherosclerotic mice (24 weeks old ApoE−/− mice under fat diet) were treated by LR12 peptide, which targets TREM-1 ligand, or a control peptide LR12-scrambled.

infarcted mice = assay: Mouse model of myocardial infarction: plasma sTREM-1 after peptide treatment; type: in vivo; conditions: for sTREM-1 levels: daily i.p. injection for 5 days, vs LR12-scrambled (FIG. 4A)
Protocol: (A) Adult male Balb/c mice (20-23 g) were subjected to myocardial ischemia and were randomly grouped (n=10 per group) to receive repeated LR12 (100 μg in 0.2 mL NaCl 0.9% once a day for 5 days) or scrambled-LR12 (100 μg in 0.2 mL NaCl 0.9% once a day for 5 days), i.p. injections. Blood samples was obtained at 24, 72 and 168 hours after cardiac ischemic event to measure plasma sTREM-1 levels. Physiologic baseline is calculated from dosage in healthy animals. N=10 per group and per timepoint.
as §1
All procedures were performed on mice male C57BL/C ranging in age from 6-8 weeks. Mice were anesthetized by an intraperitoneal injection of xylazine (60 mg/kg) and fixed in supine position. The trachea was intubated and ventilated (the tidal volume was 200 μl/25 g and the respiratory rate was 120 breaths/min). After a left thoracotomy, the left coronary artery was identified and ligated with an 8-0 prolene surgical suture at 1.0 mm distal from tip of the left auricle. LAD occlusion was confirmed by a change in myocardial color from red to white in the ischemia area (Left ventricle). The chest was closed and the skin was sutured with 6-0 silk. The animals returned to their cage where they are supervised until their complete recovery.
Mice were randomized to receive or not peptides (daily ip injection for 5 days, 5 mg/kg) and were sacrificed after 24 h, 72 h, 168 h (n=6 per group) by anesthesia followed with pentobarbital sodium overdose for blood sampling.
We also show in infarcted mice that sTREM-1 levels were decreased by LR12 treatment 24 and 72 hours after an ischemic event (FIG. 4A).

In the case of “LR12: 12 amino-acids peptide (LQEEDTGEYGCV, SEQ ID NO: 4) known to specifically target TREM-1 ligand (LR12)”, the sTREM-1 plasma concentration ([1]; 24 weeks old ApoE−/− mice under fat diet, 100 μg/day i.p., after 4 weeks of treatment, ELISA) is reported as 189.8 pg/mL, the outcome during atherosclerosis ([1]; data not shown) is reported as “better outcome” and the sTREM-1 levels (infarcted mice; 24 hours after ischemic event) is reported as “decreased”. The sTREM-1 levels (infarcted mice; 72 hours after ischemic event) was “decreased” and the “outcome after a cardiac ischemic event” value (infarcted mice; data not shown) was “better outcome”.
